Results on 2 molecules are retold here after ChEMBL document CHEMBL5647694, “Novel orally bioavailable EZH1/2 dual inhibitors with greater antitumor efficacy than an EZH2 selective inhibitor” (Cancer Sci, 2017).

Some results are limits rather than exact numbers.

A short description of data set [1]: Toxicity in Crl:CD Sprague-Dawley rat assessed as sodium level in blood at 100 mg/kg, po administered daily for 14 days (reference value: 141+/-0.82 mEq/L). In kind it is organism-based. Conditions: in vivo, 336 h, time 14 day.
A short description of data set [2]: Toxicity in Crl:CD Sprague-Dawley rat assessed as potassium level in blood at 100 mg/kg, po administered daily for 14 days (reference value: 4.18+/-0.189 mEq/L). The format is organism-based. The conditions noted are these: in vivo, 336 h, time 14 day.
A short description of data set [3]: Toxicity in Crl:CD Sprague-Dawley rat assessed as calcium level in blood at 100 mg/kg, po administered daily for 14 days (reference value: 10.1 +/-0.096 mg/dL). In kind it is organism-based. Conditions: in vivo, 336 h, time 14 day.
Data set [4] can be described thus: Toxicity in Crl:CD Sprague-Dawley rat assessed as total bilirubin level in blood at 100 mg/kg, po administered daily for 14 days (reference value: 0.003+/-0.005 mg/dL). In kind it is organism-based. Conditions: in vivo, 336 h, time 14 day.
Data set [5] can be described thus: Toxicity in Crl:CD Sprague-Dawley rat assessed as total cholesterol level in blood at 100 mg/kg, po administered daily for 14 days (reference value: 63.5 +/-[…]). The conditions noted are these: in vivo, 336 h, time 14 day. The format is organism-based.
Data set [6] can be described thus: Toxicity in Crl:CD Sprague-Dawley rat assessed as triglyceride level in blood at 100 mg/kg, po administered daily for 14 days (reference value: 132 +/-30 mg/dL). Conditions: in vivo, 336 h, time 14 day. In kind it is organism-based.
The nature of data set [7]: Toxicity in Crl:CD Sprague-Dawley rat assessed as red blood cell count in blood at 100 mg/kg, po administered daily for 14 days (reference value: 6.71+/-0.386 10^6/uL). The format is organism-based. Conditions: in vivo, 336 h, time 14 day.
A short description of data set [8]: Toxicity in Crl:CD Sprague-Dawley rat assessed as lymphocyte count in blood at 100 mg/kg, po administered daily for 14 days (reference value: 7.37+/-1.6 10^3/uL). The format is organism-based. The conditions noted are these: in vivo, 336 h, time 14 day.
Data set [9] in a line: Toxicity in Crl:CD Sprague-Dawley rat assessed as mean corpuscular volume in blood at 100 mg/kg, po administered daily for 14 days (reference value: 61.5 +/-1.92 fL). In kind it is organism-based. Conditions: in vivo, 336 h, time 14 day.
Data set [10] has as its target Protein kinase C iota type (Homo sapiens) (UniProt P41743). Kind of data set: Inhibition of N-terminal GST-fused human full length PKC-iota (1 to 587 residues ) expressed in baculovirus expression system using PKC peptide as substrate at 1 uM in presence of ATP by Mobility shift assay.
Data set [11] in a line: Toxicity in Crl:CD Sprague-Dawley rat assessed as decrease in body weight at 100 mg/kg, po administered daily for 14 days. The format is organism-based. Conditions: in vivo, 336 h, time 14 day.
The target in data set [12] is Histone-lysine N-methyltransferase 2D (Homo sapiens, UniProt O14686). The data set can be described thus: Inhibition of human MLL2 using Core Histone and [3H]SAM as substrate incubated for 30 mins to 1 hr by HotSpot kinase assay.
A further data set concerns ARH-77. Kind of data set: Antitumor activity against human ARH-77 cells assessed as cell growth inhibition treated for 10 to 15 days. The format is functional. The conditions noted are these: time 10-15 day.
For a further data set, the system named is Caov-3 cell line. The data set can be described thus: Antitumor activity against human Caov-3 cell line assessed as cell growth inhibition treated for 10 to 15 days. The conditions noted are these: time 10-15 day. In kind it is functional.
A further data set relates to SU-DHL-6. The data set can be described thus: Antitumor activity against human SU-DHL-6 cells assessed as cell growth inhibition treated for 10 to 15 days. The format is functional. Conditions: time 10-15 day.
Another data set relates to MLMA. The data set can be described thus: Antitumor activity against human MLMA cells assessed as cell growth inhibition treated for 10 to 15 days. The format is functional. The conditions noted are these: time 10-15 day.
For a further data set, the system named is SUP-T1. Kind of data set: Antitumor activity against human SUP-T1 cells assessed as cell growth inhibition treated for 10 to 15 days. The conditions noted are these: time 10-15 day. In kind it is functional.
Data set [13] deals with Histone-lysine N-methyltransferase EHMT1 (Homo sapiens, UniProt Q9H9B1). Kind of data set: Inhibition of human GLP using Histone H3 (1-21 residues) and [3H]SAM as substrate incubated for 30 mins to 1 hr by HotSpot kinase assay.
Another data set deals with MOLM-14. The data set can be described thus: Antitumor activity against human MOLM-14 cells assessed as cell growth inhibition treated for 10 to 15 days. The format is functional. The conditions noted are these: time 10-15 day.
Another data set concerns HuT78. The data set can be described thus: Antitumor activity against human HuT78 cells assessed as cell growth inhibition treated for 10 to 15 days. The format is functional. The conditions noted are these: time 10-15 day.
The test system of the next data set is DB. The data set can be described thus: Antitumor activity against human DB cells assessed as cell growth inhibition treated for 10 to 15 days. In kind it is functional. The conditions noted are these: time 10-15 day.
In another data set the test system is MKN-7. The data set can be described thus: Antitumor activity against human MKN-7 cells assessed as cell growth inhibition treated for 10 to 15 days. In kind it is functional. The conditions noted are these: time 10-15 day.
In the next data set the test system is LOUCY. Kind of data set: Antitumor activity against human LOUCY cells assessed as cell growth inhibition treated for 10 to 15 days. The format is functional. Conditions: time 10-15 day.
In another data set the test system is Daudi. The data set can be described thus: Antitumor activity against human Daudi cells assessed as cell growth inhibition treated for 10 to 15 days. The format is functional. The conditions noted are these: time 10-15 day.
Data set [14] can be described thus: Antitumor activity against human BCP-1 cells assessed as cell growth inhibition treated for 10 to 15 days. The format is functional. Conditions: time 10-15 day.
Data set [15] in a line: Antitumor activity against human HCC1500 cells assessed as cell growth inhibition treated for 10 to 15 days. In kind it is functional. Conditions: time 10-15 day.
Another data set relates to MC-CAR. Kind of data set: Antitumor activity against human MC-CAR cells assessed as cell growth inhibition treated for 10 to 15 days. The format is functional. The conditions noted are these: time 10-15 day.
The subject of a further data set is Hs 766. The data set can be described thus: Antitumor activity against human Hs766T cells assessed as cell growth inhibition treated for 10 to 15 days. The conditions noted are these: time 10-15 day. In kind it is functional.
A further data set has as its system HGC-27. The data set can be described thus: Antitumor activity against human HGC-27 cells assessed as cell growth inhibition treated for 10 to 15 days. The format is functional. Conditions: time 10-15 day.
In another data set the test system is NCI-H1436. Kind of data set: Antitumor activity against human NCI-H1436 cells assessed as cell growth inhibition treated for 10 to 15 days. The format is functional. The conditions noted are these: time 10-15 day.
The subject of the next data set is Hs-578T. The data set can be described thus: Antitumor activity against human Hs-578T cells assessed as cell growth inhibition treated for 10 to 15 days. In kind it is functional. Conditions: time 10-15 day.
A further data set concerns ZR-75-30. Kind of data set: Antitumor activity against human ZR-75-30 cells assessed as cell growth inhibition treated for 10 to 15 days. In kind it is functional. The conditions noted are these: time 10-15 day.
The subject of a further data set is DU-145. The data set can be described thus: Antitumor activity against human DU-145 cells assessed as cell growth inhibition treated for 10 to 15 days. The format is functional. Conditions: time 10-15 day.
A further data set concerns OV-90. Kind of data set: Antitumor activity against human OV-90 cells assessed as cell growth inhibition treated for 10 to 15 days. In kind it is functional. Conditions: time 10-15 day.
The next data set concerns TCC-SUP. Kind of data set: Antitumor activity against human TCC-SUP cells assessed as cell growth inhibition treated for 10 to 15 days. The format is functional. Conditions: time 10-15 day.
Another data set has as its system SUD4. The data set can be described thus: Antitumor activity against human SU-DHL-4 cells assessed as cell growth inhibition treated for 10 to 15 days. In kind it is functional. Conditions: time 10-15 day.
The subject of the next data set is KG-1. The data set can be described thus: Antitumor activity against human KG-1 cells assessed as cell growth inhibition treated for 10 to 15 days. The format is functional. Conditions: time 10-15 day.
Another data set deals with GA-10. The data set can be described thus: Antitumor activity against human GA-10 cells assessed as cell growth inhibition treated for 10 to 15 days. In kind it is functional. The conditions noted are these: time 10-15 day.
The target of data set [16] is Histone-lysine N-methyltransferase NSD3 (Homo sapiens, UniProt Q9BZ95). Kind of data set: Inhibition of human NSD3 using Nucleosomes and [3H]SAM as substrate incubated for 30 mins to 1 hr by HotSpot kinase assay.
For the next data set, the system named is SNU1. The data set can be described thus: Antitumor activity against human SNU1 cells assessed as cell growth inhibition treated for 10 to 15 days. In kind it is functional. The conditions noted are these: time 10-15 day.
For another data set, the system named is Z-138. Kind of data set: Antitumor activity against human Z138 cells assessed as cell growth inhibition treated for 10 to 15 days. In kind it is functional. The conditions noted are these: time 10-15 day.
The nature of data set [17]: Antitumor activity against human CADO-ES1 cells assessed as cell growth inhibition treated for 10 to 15 days. Conditions: time 10-15 day. The format is functional.
The test system of a further data set is MX1. The data set can be described thus: Antitumor activity against human MX1 cells assessed as cell growth inhibition treated for 10 to 15 days. The format is functional. Conditions: time 10-15 day.

Chain of Protein kinase C iota type (Homo sapiens) (P41743 whole entry, the tested form may be a part): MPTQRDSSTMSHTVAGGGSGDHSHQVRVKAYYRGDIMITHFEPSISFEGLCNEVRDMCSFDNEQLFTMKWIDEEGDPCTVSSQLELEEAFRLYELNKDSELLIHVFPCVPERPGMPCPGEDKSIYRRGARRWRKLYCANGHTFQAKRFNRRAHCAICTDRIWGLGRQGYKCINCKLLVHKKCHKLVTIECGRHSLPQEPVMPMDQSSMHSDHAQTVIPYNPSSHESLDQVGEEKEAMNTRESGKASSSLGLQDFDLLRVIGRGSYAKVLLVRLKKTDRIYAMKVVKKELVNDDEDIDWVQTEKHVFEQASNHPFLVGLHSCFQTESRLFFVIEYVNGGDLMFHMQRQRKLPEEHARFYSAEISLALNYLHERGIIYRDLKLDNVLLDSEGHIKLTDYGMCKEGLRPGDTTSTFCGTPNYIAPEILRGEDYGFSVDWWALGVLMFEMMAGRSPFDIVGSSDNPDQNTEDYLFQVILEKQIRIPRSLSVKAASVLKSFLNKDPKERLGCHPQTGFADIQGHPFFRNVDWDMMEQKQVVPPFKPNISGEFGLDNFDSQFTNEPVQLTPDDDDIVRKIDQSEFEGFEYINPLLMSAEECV
Chain of Histone-lysine N-methyltransferase NSD3 (Q9BZ95 whole entry): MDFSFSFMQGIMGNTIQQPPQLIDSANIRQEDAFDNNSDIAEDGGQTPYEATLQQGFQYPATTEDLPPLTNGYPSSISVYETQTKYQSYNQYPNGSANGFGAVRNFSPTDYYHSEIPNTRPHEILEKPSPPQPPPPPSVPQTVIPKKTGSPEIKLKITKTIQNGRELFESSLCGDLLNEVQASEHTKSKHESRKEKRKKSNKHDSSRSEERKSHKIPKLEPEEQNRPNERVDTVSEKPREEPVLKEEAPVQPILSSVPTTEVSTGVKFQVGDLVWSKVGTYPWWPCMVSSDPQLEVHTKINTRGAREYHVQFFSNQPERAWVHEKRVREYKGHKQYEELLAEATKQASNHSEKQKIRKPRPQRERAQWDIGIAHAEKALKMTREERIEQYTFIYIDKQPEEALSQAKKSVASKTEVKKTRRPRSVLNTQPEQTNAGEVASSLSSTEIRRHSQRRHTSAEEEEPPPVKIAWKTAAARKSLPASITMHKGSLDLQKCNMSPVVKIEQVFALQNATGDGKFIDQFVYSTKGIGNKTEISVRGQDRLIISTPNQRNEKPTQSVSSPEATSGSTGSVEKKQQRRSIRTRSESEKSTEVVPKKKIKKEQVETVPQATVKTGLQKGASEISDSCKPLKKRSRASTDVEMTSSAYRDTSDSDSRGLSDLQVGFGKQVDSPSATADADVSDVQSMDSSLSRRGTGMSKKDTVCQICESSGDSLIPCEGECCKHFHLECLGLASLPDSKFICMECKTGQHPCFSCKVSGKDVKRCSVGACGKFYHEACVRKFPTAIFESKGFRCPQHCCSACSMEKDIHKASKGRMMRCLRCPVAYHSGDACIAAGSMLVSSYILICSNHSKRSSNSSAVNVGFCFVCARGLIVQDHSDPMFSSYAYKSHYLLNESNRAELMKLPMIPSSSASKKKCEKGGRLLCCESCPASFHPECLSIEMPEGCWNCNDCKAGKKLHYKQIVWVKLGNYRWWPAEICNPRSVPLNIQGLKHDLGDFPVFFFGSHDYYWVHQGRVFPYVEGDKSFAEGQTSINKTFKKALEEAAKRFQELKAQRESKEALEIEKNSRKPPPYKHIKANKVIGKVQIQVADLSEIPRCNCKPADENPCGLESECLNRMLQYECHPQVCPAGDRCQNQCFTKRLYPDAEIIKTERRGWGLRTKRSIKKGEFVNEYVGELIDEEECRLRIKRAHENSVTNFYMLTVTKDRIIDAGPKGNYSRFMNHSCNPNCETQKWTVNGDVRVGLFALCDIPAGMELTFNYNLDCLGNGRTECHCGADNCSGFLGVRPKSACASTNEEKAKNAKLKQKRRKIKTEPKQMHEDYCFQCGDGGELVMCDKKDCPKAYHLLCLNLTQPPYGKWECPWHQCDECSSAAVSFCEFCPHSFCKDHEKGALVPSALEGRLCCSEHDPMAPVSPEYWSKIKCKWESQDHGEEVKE
Chain of Histone-lysine N-methyltransferase EHMT1 (Q9H9B1 whole entry, the tested form may be a part): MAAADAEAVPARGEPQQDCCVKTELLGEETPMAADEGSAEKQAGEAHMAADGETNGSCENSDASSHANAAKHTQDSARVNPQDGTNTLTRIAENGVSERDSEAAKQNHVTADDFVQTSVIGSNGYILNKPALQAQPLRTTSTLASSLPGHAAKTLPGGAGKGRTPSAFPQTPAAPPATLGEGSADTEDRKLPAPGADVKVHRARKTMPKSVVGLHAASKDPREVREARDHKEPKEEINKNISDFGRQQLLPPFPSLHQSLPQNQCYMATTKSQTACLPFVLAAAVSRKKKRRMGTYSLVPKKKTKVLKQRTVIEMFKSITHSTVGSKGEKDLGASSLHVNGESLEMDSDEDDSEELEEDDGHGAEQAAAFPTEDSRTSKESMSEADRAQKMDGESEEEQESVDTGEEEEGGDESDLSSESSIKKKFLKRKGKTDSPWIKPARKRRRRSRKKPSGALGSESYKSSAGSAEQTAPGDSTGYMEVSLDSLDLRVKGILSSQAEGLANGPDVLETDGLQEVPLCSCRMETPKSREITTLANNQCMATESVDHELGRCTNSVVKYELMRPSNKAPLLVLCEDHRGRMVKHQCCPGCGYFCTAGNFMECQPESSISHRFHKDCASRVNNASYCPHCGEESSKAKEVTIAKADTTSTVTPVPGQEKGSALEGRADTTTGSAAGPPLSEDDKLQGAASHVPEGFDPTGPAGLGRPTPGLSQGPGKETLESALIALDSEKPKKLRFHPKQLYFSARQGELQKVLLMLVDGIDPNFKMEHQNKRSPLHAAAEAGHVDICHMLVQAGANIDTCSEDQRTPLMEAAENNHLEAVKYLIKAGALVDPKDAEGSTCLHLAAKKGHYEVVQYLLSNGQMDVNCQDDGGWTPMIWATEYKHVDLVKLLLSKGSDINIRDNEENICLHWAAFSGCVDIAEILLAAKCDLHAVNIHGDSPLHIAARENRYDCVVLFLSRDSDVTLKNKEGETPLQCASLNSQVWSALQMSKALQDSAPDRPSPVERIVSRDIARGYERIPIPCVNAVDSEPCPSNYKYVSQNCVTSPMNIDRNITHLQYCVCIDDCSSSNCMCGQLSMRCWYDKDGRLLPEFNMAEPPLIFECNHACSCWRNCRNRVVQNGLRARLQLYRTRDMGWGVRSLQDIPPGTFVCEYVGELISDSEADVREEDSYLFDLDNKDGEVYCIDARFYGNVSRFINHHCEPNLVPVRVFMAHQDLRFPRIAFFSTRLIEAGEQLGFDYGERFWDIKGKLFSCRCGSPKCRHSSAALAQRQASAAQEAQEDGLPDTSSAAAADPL

The term inhibition denotes the relative decrease from the control value, in per cent. As for `Cc1cc(C)c(CNC(=O)c2cc(Br)c3c(c2C)O[C@@](C)([C@H]2CC[C@H](N(C)C)CC2)O3)c(=O)[nH]1`, the Activity came to 142 mEq/L in [1]; 4.2 mEq/L in [2]; 9.88 mg/dL in data set [3]; 0.028 mg/dL in data set [4]; 64 mg/dL in data set [5]; 90 mg/dL in data set [6]. The Activity is 6.59 10^6 /uL in data set [7], 3.67 10^3 /uL in [8], 60.9 fL in data set [9] and “Toxic” in [11]. Also, the inhibition in data set [10] came to 22.3%.

By IC50 is commonly meant the concentration at which inhibition is half-maximal. One may read the GI50 as the concentration at which growth is held to half of that of the control. Regarding `Cc1cc(C)c(CNC(=O)c2cc(Cl)c3c(c2C)O[C@@](C)([C@H]2CC[C@H](N(C)C)CC2)O3)c(=O)[nH]1` [VALEMETOSTAT], the IC50 in data set [12] was above 100000 nM; in data set [13] it was 100000 nM; in [16], 100000 nM. The GI50 in the data set with ARH-77 was above 1000 nM; with Caov-3 cell line, above 1000 nM; in the data set with SU-DHL-6, 0.68 nM; with MLMA, 273 nM; in the data set with SUP-T1, above 1000 nM; in the data set with MOLM-14, 70 nM. Besides, the GI50 in the data set with HuT78 was above 1000 nM; in the data set on DB, 4.11 nM; with MKN-7 it was above 1000 nM; in the data set on LOUCY, above 1000 nM; with Daudi, above 1000 nM; in data set [14], above 1000 nM. The GI50 in data set [15] is 21 nM; in the data set with MC-CAR it was 31.3 nM; in the data set with Hs 766, above 1000 nM; in the data set on HGC-27, above 1000 nM; with NCI-H1436 it was 216 nM; in the data set on Hs-578T, above 1000 nM. The GI50 with ZR-75-30 is above 1000 nM; in the data set with DU-145, above 1000 nM; in the data set with OV-90, above 1000 nM; with TCC-SUP, above 1000 nM; in the data set on SUD4, 55.5 nM; in the data set with KG-1, 700 nM. In addition, the GI50 is 14.9 nM in the data set with GA-10; above 1000 nM with SNU1; 19.1 nM in the data set with Z-138; 952 nM in data set [17]; above 1000 nM with MX1.
